Results taken from patent US10144713B1, “Bis-cyclic guanidines as antibacterial agents” (UNIVERSITY OF SOUTH FLORIDA, priority 2017, dated 2018).
Where two headings read alike, the source gives them in different places.

Tests used:
Format in all cases: cell-based
[1] = test system: Methicillin-resistant S. aureus (MRSA, ATCC 33591); assay: MIC against MRSA; conditions: Gram +, 16 h, 37° C.; for MIC: Staphylococcus aureus
Method: (§1) Minimum Inhibitory Concentrations (MICs) Against Bacteria.
(§2) The antimicrobial activity of the compounds was tested on the following six bacteria strains: K. pneumoniae (ATCC 13383), P. aeruginosa (ATCC27853), E. coli (ATCC 25922), vancomycin-resistant Enterococcus faecalis(ATCC 700802), Methicillin-resistant S. aureus (MRSA, ATCC 33591), Methicillin-resistant S. epidermidis (MRSE, RP62A). The procedures were followed as reported previously (Hancock et al., Immunobiology 2006, 211, 315-322). Briefly, a single colony of each bacterium was inoculated in 3 mL TSB medium and incubated overnight at 37° C. Then the bacteria culture was diluted at 1:100 and the bacteria were allowed to grow to mid-logarithmic phase. Next, 50 μL of 2-fold serial dilutions of compounds (0.1-25 μg/mL) were added the 96-well plate containing aliquots of 50 μL of bacteria suspension (1×10^6 CFU/mL) in each well. The mixture was incubated at 37° C. for 16 h, and their absorption at 600 nm wavelength was read on a Biotek Synergy HT microtiter plate reader. […] The experiments were repeated at least three times with duplicates each time. HC50 means the concentration causing 50% hemolysis.

E. coli (ATCC 25922) = assay: MIC against E. coli; conditions: Gram −, 16 h, 37° C.; for MIC: Escherichia coli, ATCC25922
Method: as §1, §2

[2] = test system: vancomycin-resistant Enterococcus faecalis (ATCC 700802); assay: MIC against VRE; conditions: Gram +; 16 h, 37° C.
Method: as §1, §2

[3] = test system: Methicillin-resistant S. epidermidis (MRSE, RP62A); assay: MIC against MRSE; conditions: Gram +, 16 h, 37° C.; for MIC: Staphylococcus epidermidis, MRSE
Method: as §1, §2

[4] = test system: P. aeruginosa (ATCC27853); assay: MIC against P. aeruginosa; conditions: for MIC: Pseudomonas aeruginosa, ATCC27853
Method: as §1, §2

[5] = test system: K. pneumoniae (ATCC 13383); assay: MIC against K. pneumoniae; conditions: Gram −, 16 h, 37° C.; for MIC: Klebsiella pneumoniae, ATCC13383
Method: as §1, §2

[6] = test system: human red blood cells (hRBCs); assay: Hemolytic assay; conditions: for Hemolysis (HC50): concentration causing 50% hemolysis, hRBCs, 37° C., 1 h
Method: The freshly drawn, K2EDTA treated human red blood cells (hRBCs) were washed with 1×PBS buffer, and centrifuged at 3500 rpm for 10 min. The step was repeated until the supernatant became clear. The supernatant was removed, and the RBCs were diluted into 5% v/v suspension. 50 μL of the suspension was incubated with 50 μL of compounds of different concentrations at 37° C. for 1 h. The mixture was centrifuged at 3500 rpm for 10 min. Subsequently, to 30 μL of the supernatant 100 μL PBS was added, and the absorbance of the mixture at 540 nm was read on a Biotek Synergy HT plate reader. The positive control was 2% Triton X-100, and the negative control was 1×PBS alone. The hemolysis activity was calculated by the formula % hemolysis=(Abssample−AbsPBS)/(AbsTriton−AbsPBS)×100%. The experiment was repeated at least three times with duplicates each time.

[7] = test system: six bacteria strains (K. pneumoniae, P. aeruginosa, E. coli, VRE, MRSA, MRSE); assay: Antimicrobial activity on the panel of six bacteria strains
Method: as §1, §2

[8] = read-out: MIC against Gram-positive bacteria
[9] = read-out: MIC for Gram-negative bacteria (except for P. aeruginosa)

Row | Compound | MIC [1] [µg/mL] | MIC (E. coli (ATCC 25922)) [µg/mL] | MIC [2] [µg/mL] | MIC [3] [µg/mL] | MIC ([4]; Gram −, 16 h, 37° C.) [µg/mL] | MIC [5] [µg/mL] | Hemolysis (HC50) [6] [µg/mL] | other results
1 | N=C1N[C@@H](Cc2ccccc2)CN1CC(=O)NCCCCNC(=O)CN1C[C@H](Cc2ccccc2)NC1=N [Compound 1] | > 25 | > 25 | – | – | – | – | – | –
2 | N=C1N[C@@H](Cc2ccccc2)CN1CC(=O)Nc1cccc(NC(=O)CN2C[C@H](Cc3ccccc3)NC2=N)c1 [Compound 2] | > 25 | > 25 | – | – | – | – | – | –
3 | CCN1C(=N)N(CC(=O)Nc2ccc(NC(=O)CN3C[C@H](Cc4ccccc4)N(CC)C3=N)cc2)C[C@@H]1Cc1ccccc1 [Compound 3] | 6 to 12 | 1.5 | > 25 | > 25 | > 25 | > 25 | – | MIC MRSA [1]: 6~12 μg/mL
4 | CCN1C(=N)N(CC(=O)Nc2cccc(NC(=O)CN3C[C@H](Cc4ccccc4)N(CC)C3=N)c2)C[C@@H]1Cc1ccccc1 [Compound 4] | 6 to 12 | 3 | > 25 | > 25 | > 25 | > 25 | – | MIC MRSA [1]: 6~12 μg/mL; MIC E. coli (E. coli (ATCC 25922)): 3.0 µg/mL
5 | N=C1N(CC(=O)Nc2ccc(NC(=O)CN3C[C@H](Cc4ccccc4)N(CCCc4ccccc4)C3=N)cc2)C[C@H](Cc2ccccc2)N1CCCc1ccccc1 [Compound 5] | 0.33 | 1.5 to 3 | 0.75 | 0.75 | 12 to 25 | 1.5 to 3 | 140 | MIC [7, 8]: < 3 µg/mL; MIC [7, 9]: < 3 µg/mL
6 | N=C1N(CC(=O)Nc2cccc(NC(=O)CN3C[C@H](Cc4ccccc4)N(CCCc4ccccc4)C3=N)c2)C[C@H](Cc2ccccc2)N1CCCc1ccccc1 [Compound 6] | 1.5 to 3 | 3 to 6 | 1.5 | 1.5 | 12 to 25 | 3 | >250 | MIC [7, 8]: < 3 µg/mL; MIC [7, 9]: < 3 µg/mL
7 | N#CNc1cccc(NC(=O)CN2C[C@H](Cc3ccccc3)N(CCCc3ccccc3)C2=N)c1 [Compound 7] | 12 to 25 | > 25 | – | – | – | – | – | antibacterial activity against the tested bacteria (in words) [7]: negligible activity
8 | N=C1N(CC(=O)Nc2cccc(NC(N)=O)c2)C[C@H](Cc2ccccc2)N1CCCc1ccccc1 [Compound 8] | 12 to 25 | > 25 | – | – | – | – | – | antibacterial activity against the tested bacteria (in words) [7]: negligible activity
9 | N=C1N(CC(=O)NCCCCCCNC(=O)CN2C[C@H](Cc3ccccc3)N(CCCc3ccccc3)C2=N)C[C@H](Cc2ccccc2)N1CCCc1ccccc1 [Compound 9] | 0.75 | 3 to 6 | 1.5 to 3 | 0.75 to 1.5 | > 25 | 3 to 6 | 100 | HC50 ([6]; text b247, unit as printed): 100 µg/mL; activity against P. aeruginosa (in words) [4]: not active
10 | N=C1N(CC(=O)Nc2ccc(-c3ccc(NC(=O)CN4C[C@H](Cc5ccccc5)N(CCCc5ccccc5)C4=N)cc3)cc2)C[C@H](Cc2ccccc2)N1CCCc1ccccc1 [Compound 10] | > 25 | > 25 | – | – | – | – | – | antibacterial activity against the tested bacteria (in words) [7]: not active
11 | CCCCCCN1C(=N)N(CC(=O)NCCCCNC(=O)CN2C[C@H](Cc3ccccc3)N(CCCCCC)C2=N)C[C@@H]1Cc1ccccc1 [Compound 13] | 0.75 | 1.5 | 3 to 6 | 1.5 | > 25 | 6 to 12 | >250 | activity against P. aeruginosa (in words) [4]: reduced activity
12 | CCCCCCN1C(=N)N(CC(=O)NCCCCCCNC(=O)CN2C[C@H](Cc3ccccc3)N(CCCCCC)C2=N)C[C@@H]1Cc1ccccc1 [Compound 14] | 0.325 | 1.5 | 1.5 | 0.75 | > 25 | 3 to 6 | >250 | activity against P. aeruginosa (in words) [4]: reduced activity
13 | CCCCCCN1C(=N)N(CC(=O)NCCCCCCCCNC(=O)CN2C[C@H](Cc3ccccc3)N(CCCCCC)C2=N)C[C@@H]1Cc1ccccc1 [Compound 15] | 0.75 | 0.75 to 1.5 | 0.325 | 1.5 | > 25 | 1.5 to 3 | >250 | activity against P. aeruginosa (in words) [4]: reduced activity
14 | CCCCCCCCN1C(=N)N(CC(=O)Nc2ccc(NC(=O)CN3C[C@H](Cc4ccccc4)N(CCCCCCCC)C3=N)cc2)C[C@@H]1Cc1ccccc1 [Compound 17] | 1.5 | > 25 | – | – | – | – | – | antibacterial activity against the tested bacteria (in words) [7]: decreased activity
15 | CCCCCCCCN1C(=N)N(CC(=O)Nc2cccc(NC(=O)CN3C[C@H](Cc4ccccc4)N(CCCCCCCC)C3=N)c2)C[C@@H]1Cc1ccccc1 [Compound 18] | 1.5 | > 25 | – | – | – | – | – | antibacterial activity against the tested bacteria (in words) [7]: decreased activity
16 | N=C1N(CC(=O)Nc2ccc(NC(=O)CN3C[C@H](Cc4ccccc4)N(CCCC4CCCCC4)C3=N)cc2)C[C@H](Cc2ccccc2)N1CCCC1CCCCC1 [Compound 19] | 0.75 | 12 | 0.75 | 0.33 | > 25 | 1.5 to 3 | 5 | –
17 | N=C1N(CC(=O)Nc2cccc(NC(=O)CN3C[C@H](Cc4ccccc4)N(CCCC4CCCCC4)C3=N)c2)C[C@H](Cc2ccccc2)N1CCCC1CCCCC1 [Compound 20] | 0.325 | 12 | 1.5 | 0.33 | > 25 | 1.5 to 3 | 26 | –
18 | N=C1N(CC(=O)Nc2ccc(NC(=O)CN3C[C@H](Cc4ccccc4)N(CCC45CC6CC(CC(C6)C4)C5)C3=N)cc2)C[C@H](Cc2ccccc2)N1CCC12CC3CC(CC(C3)C1)C2 [Compound 21] | 6 | > 25 | – | – | – | – | – | –
19 | N=C1N(CC(=O)Nc2cccc(NC(=O)CN3C[C@H](Cc4ccccc4)N(CCC45CC6CC(CC(C6)C4)C5)C3=N)c2)C[C@H](Cc2ccccc2)N1CCC12CC3CC(CC(C3)C1)C2 [Compound 22] | 3 | > 25 | – | – | – | – | – | –
20 | CCCCCCN1C(=N)N(CC(=O)Nc2cccc(NC(=O)CN3C[C@H](CC(C)C)N(CCCCCC)C3=N)c2)C[C@@H]1CC(C)C [Compound 23] | 1.5 | 1.5 to 3 | 0.75 | 1.5 | 6 to 12 | 0.75 | 200 | –
21 | CCCCCCCCCC(=O)N[C@@H](Cc1c[nH]c2ccccc12)C(=O)N[C@H](CC(N)=O)C(=O)N[C@@H](CC(=O)O)C(=O)N[C@@H]1C(=O)NCC(=O)N[C@@H](CCCN)C(=O)N[C@@H](CC(=O)O)C(=O)N[C@H](C)C(=O)N[C@@H](CC(=O)O)C(=O)NCC(=O)N[C@H](CO)C(=O)N[C@@H]([C@H](C)CC(=O)O)C(=O)N[C@@H](CC(=O)c2ccccc2N)C(=O)O[C@@H]1C [Daptomycin, reference compound] | 0.5 | > 50 | 1 | 0.5 | > 50 | > 50 | – | –
22 | Colistin [reference compound] | – | – | – | – | – | – | – | MIC VRE [2]: >50 µg/mL; MIC MRSA [1]: >50 µg/mL; MIC MRSE [3]: >50 µg/mL; MIC P. aeruginosa ([4]; Gram −, 16 h, 37° C.): 1.0 µg/mL; MIC K. pneumoniae [5]: 0.5 µg/mL; MIC E. coli (E. coli (ATCC 25922)): 0.5 µg/mL
